Assay results published in US20210045385A1, “PYRIDAZINONE-SUBSTITUTED KETOXIMES AS HERBICIDES” (FMC Corporation, priority 2018, published 2021).

Experiments:
Type in all cases: in vivo
[1] = tested on: duck salad (Heteranthera limosa); test: Test D flooded paddy test, visual plant response rating; conditions: 250 g ai/ha, scale 0 to 100 (0 no effect, 100 complete control), 13 to 15 d
Method in brief: (§1)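 2-leaf plants, flooded 3 cm, cpd into paddy water; greenhouse 13–15 d; visual rating vs controls, 0 = no effect, 100 = complete control; dash = no result.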

[2] = tested on: sedge umbrella (small-flower umbrella sedge, Cyperus difformis); test: as above; conditions: 250 g ai/ha, scale 0 to 100 (0 no effect, 100 complete control), 13 to 15 d
Method in brief: as §1

[3] = tested on: rice (Oryza sativa); test: as above; conditions: 250 g ai/ha, scale 0 to 100 (0 no effect, 100 complete control), 13 to 15 d
Method in brief: as §1

[4] = tested on: barnyardgrass (Echinochloa crus-galli); test: as above; conditions: 250 g ai/ha, scale 0 to 100 (0 no effect, 100 complete control), 13 to 15 d
Method in brief: as §1

[5] = tested on: corn (Zea mays); test: Test C postemergence, visual plant response rating
Method in brief: (§2)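 Compounds in a non-phytotoxic solvent with surfactant were applied as a directed soil spray preemergence or to 2–10 cm, one- to two-leaf plants postemergence, in loam–sand soil. After about 10 d in a greenhouse, injury was visually rated against untreated controls on a 0–100 scale (100 = complete control).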

[6] = tested on: kochia (Bassia scoparia); test: Test C postemergence, visual plant response rating
Method in brief: as §2

[7] = tested on: Italian ryegrass (Lolium mutiflorum); test: Test C postemergence, visual plant response rating
Method in brief: as §2

[8] = tested on: wheat (Triticum aestivum); test: Test C postemergence, visual plant response rating
Method in brief: as §2

[9] = tested on: ragweed (common ragweed, Ambrosia artemisiifolia); test: Test C postemergence, visual plant response rating
Method in brief: as §2

[10] = tested on: foxtail, giant (giant foxtail, Setaria faberi); test: Test C postemergence, visual plant response rating
Method in brief: as §2

[11] = tested on: pigweed (Amaranthus retroflexus); test: Test C postemergence, visual plant response rating
Method in brief: as §2

[12] = tested on: barnyardgrass (Echinochloa crus-galli); test: Test C postemergence, visual plant response rating
Method in brief: as §2

[13] = tested on: galium (catchweed bedstraw, Galium aparine); test: Test C postemergence, visual plant response rating
Method in brief: as §2

[14] = tested on: blackgrass (Alopecurus myosuroides); test: Test C postemergence, visual plant response rating
Method in brief: as §2

[15] = tested on: kochia (Bassia scoparia); test: Test C preemergence, visual plant response rating
Method in brief: as §2

[16] = tested on: Italian ryegrass (Lolium mutiflorum); test: Test C preemergence, visual plant response rating
Method in brief: as §2

[17] = tested on: foxtail, giant (giant foxtail, Setaria faberi); test: Test C preemergence, visual plant response rating
Method in brief: as §2

[18] = tested on: pigweed (Amaranthus retroflexus); test: Test C preemergence, visual plant response rating
Method in brief: as §2

[19] = tested on: barnyardgrass (Echinochloa crus-galli); test: Test C preemergence, visual plant response rating
Method in brief: as §2

[20] = Test C, postemergence, 125 g ai/ha
[21] = Test C, 31 g ai/ha, 0 is no effect, 100 is complete control
[22] = Test C, 125 g ai/ha, 0 is no effect, 100 is complete control

Cc1nn(C)c(=O)c(C(=NOCC2CC2)c2cc(Cl)cc(Cl)c2Cl)c1O [Compound 182]
60: Barnyardgrass plant response rating (0 to 100 scale) [12, 20]
10: Kochia plant response rating (0 to 100 scale) ([6]; Postemergence, 31 g ai/ha) | Pigweed plant response rating (0 to 100 scale) ([11]; Postemergence, 31 g ai/ha) | Blackgrass plant response rating (0 to 100 scale) ([14]; Postemergence, 31 g ai/ha) | Blackgrass plant response rating (0 to 100 scale) [14, 20]
40: Ragweed plant response rating (0 to 100 scale) ([9]; Postemergence, 31 g ai/ha)
30: Corn plant response rating (0 to 100 scale) [5, 20] | Ryegrass, Italian plant response rating (0 to 100 scale) [16, 21]
0: Plant response rating, Ducksalad (Flood) [1] | Plant response rating, Sedge, Umbrella (Flood) [2] | Plant response rating, Rice (Flood) [3] | Plant response rating, Barnyardgrass (Flood) [4] | Corn plant response rating (0 to 100 scale) ([5]; Postemergence, 31 g ai/ha) | Wheat plant response rating (0 to 100 scale) ([8]; Postemergence, 31 g ai/ha) | Kochia plant response rating (0 to 100 scale) ([15]; 125 g ai/ha) | Kochia plant response rating (0 to 100 scale) [15, 21] | Pigweed plant response rating (0 to 100 scale) [18, 21] | Barnyardgrass plant response rating (0 to 100 scale) [19, 21]
90: Foxtail, Giant plant response rating (0 to 100 scale) [10, 20] | Barnyardgrass plant response rating (0 to 100 scale) ([19]; 125 g ai/ha)
100: Ryegrass, Italian plant response rating (0 to 100 scale) [7, 20] | Ragweed plant response rating (0 to 100 scale) [9, 20] | Galium plant response rating (0 to 100 scale) [13, 20] | Ryegrass, Italian plant response rating (0 to 100 scale) ([16]; 125 g ai/ha) | Foxtail, Giant plant response rating (0 to 100 scale) ([17]; 125 g ai/ha)
50: Pigweed plant response rating (0 to 100 scale) [11, 20] | Barnyardgrass plant response rating (0 to 100 scale) ([12]; Postemergence, 31 g ai/ha)
70: Kochia plant response rating (0 to 100 scale) [6, 20] | Ryegrass, Italian plant response rating (0 to 100 scale) ([7]; Postemergence, 31 g ai/ha) | Wheat plant response rating (0 to 100 scale) [8, 20] | Foxtail, Giant plant response rating (0 to 100 scale) ([10]; Postemergence, 31 g ai/ha) | Galium plant response rating (0 to 100 scale) ([13]; Postemergence, 31 g ai/ha) | Foxtail, Giant plant response rating (0 to 100 scale) [17, 21] | Pigweed plant response rating (0 to 100 scale) ([18]; 125 g ai/ha)

CCO/N=C(\c1c(O)c(Cl)nn(C)c1=O)c1cc(Br)cc2ccccc12 [Compound 235]
10: Corn plant response rating (0 to 100 scale) [5, 20]
80: Foxtail, Giant plant response rating (0 to 100 scale) [10, 20]
0: Plant response rating, Rice (Flood) [3] | Corn plant response rating (0 to 100 scale) ([5]; Postemergence, 31 g ai/ha) | Ryegrass, Italian plant response rating (0 to 100 scale) ([7]; Postemergence, 31 g ai/ha) | Ryegrass, Italian plant response rating (0 to 100 scale) [7, 20] | Wheat plant response rating (0 to 100 scale) ([8]; Postemergence, 31 g ai/ha) | Wheat plant response rating (0 to 100 scale) [8, 20] | Kochia plant response rating (0 to 100 scale) [15, 21] | Ryegrass, Italian plant response rating (0 to 100 scale) [16, 21] | Ryegrass, Italian plant response rating (0 to 100 scale) [16, 22]
100: Ragweed plant response rating (0 to 100 scale) ([9]; Postemergence, 31 g ai/ha) | Ragweed plant response rating (0 to 100 scale) [9, 20] | Pigweed plant response rating (0 to 100 scale) [18, 21] | Barnyardgrass plant response rating (0 to 100 scale) [19, 22]
70: Kochia plant response rating (0 to 100 scale) [15, 22]
40: Foxtail, Giant plant response rating (0 to 100 scale) ([10]; Postemergence, 31 g ai/ha)
30: Foxtail, Giant plant response rating (0 to 100 scale) [17, 21]
60: Plant response rating, Barnyardgrass (Flood) [4] | Kochia plant response rating (0 to 100 scale) [6, 20] | Barnyardgrass plant response rating (0 to 100 scale) ([12]; Postemergence, 31 g ai/ha)
50: Kochia plant response rating (0 to 100 scale) ([6]; Postemergence, 31 g ai/ha) | Pigweed plant response rating (0 to 100 scale) ([11]; Postemergence, 31 g ai/ha)
20: Blackgrass plant response rating (0 to 100 scale) ([14]; Postemergence, 31 g ai/ha) | Blackgrass plant response rating (0 to 100 scale) [14, 20]
90: Plant response rating, Sedge, Umbrella (Flood) [2] | Pigweed plant response rating (0 to 100 scale) [11, 20] | Barnyardgrass plant response rating (0 to 100 scale) [12, 20] | Galium plant response rating (0 to 100 scale) ([13]; Postemergence, 31 g ai/ha) | Galium plant response rating (0 to 100 scale) [13, 20] | Foxtail, Giant plant response rating (0 to 100 scale) [17, 22] | Pigweed plant response rating (0 to 100 scale) [18, 22] | Barnyardgrass plant response rating (0 to 100 scale) [19, 21]
75: Plant response rating, Ducksalad (Flood) [1]

CO/N=C(\c1c(O)c(Cl)nn(C)c1=O)c1cc(Br)cc2ccccc12 [Compound 250]
50: Pigweed plant response rating (0 to 100 scale) ([11]; Postemergence, 31 g ai/ha) | Barnyardgrass plant response rating (0 to 100 scale) ([12]; Postemergence, 31 g ai/ha)
85: Plant response rating, Ducksalad (Flood) [1]
100: Ragweed plant response rating (0 to 100 scale) ([9]; Postemergence, 31 g ai/ha) | Ragweed plant response rating (0 to 100 scale) [9, 20] | Galium plant response rating (0 to 100 scale) [13, 20]
60: Kochia plant response rating (0 to 100 scale) [6, 20]
70: Plant response rating, Sedge, Umbrella (Flood) [2] | Pigweed plant response rating (0 to 100 scale) [11, 20] | Pigweed plant response rating (0 to 100 scale) [18, 22] | Barnyardgrass plant response rating (0 to 100 scale) [19, 21]
0: Corn plant response rating (0 to 100 scale) ([5]; Postemergence, 31 g ai/ha) | Ryegrass, Italian plant response rating (0 to 100 scale) ([7]; Postemergence, 31 g ai/ha) | Ryegrass, Italian plant response rating (0 to 100 scale) [7, 20] | Wheat plant response rating (0 to 100 scale) ([8]; Postemergence, 31 g ai/ha) | Wheat plant response rating (0 to 100 scale) [8, 20] | Kochia plant response rating (0 to 100 scale) [15, 21] | Ryegrass, Italian plant response rating (0 to 100 scale) [16, 21] | Ryegrass, Italian plant response rating (0 to 100 scale) [16, 22]
40: Kochia plant response rating (0 to 100 scale) ([6]; Postemergence, 31 g ai/ha) | Foxtail, Giant plant response rating (0 to 100 scale) [17, 21]
10: Plant response rating, Rice (Flood) [3] | Corn plant response rating (0 to 100 scale) [5, 20] | Blackgrass plant response rating (0 to 100 scale) ([14]; Postemergence, 31 g ai/ha) | Pigweed plant response rating (0 to 100 scale) [18, 21]
90: Galium plant response rating (0 to 100 scale) ([13]; Postemergence, 31 g ai/ha)
20: Foxtail, Giant plant response rating (0 to 100 scale) ([10]; Postemergence, 31 g ai/ha)
30: Blackgrass plant response rating (0 to 100 scale) [14, 20]
80: Foxtail, Giant plant response rating (0 to 100 scale) [10, 20] | Barnyardgrass plant response rating (0 to 100 scale) [12, 20] | Kochia plant response rating (0 to 100 scale) [15, 22] | Foxtail, Giant plant response rating (0 to 100 scale) [17, 22] | Barnyardgrass plant response rating (0 to 100 scale) [19, 22]
25: Plant response rating, Barnyardgrass (Flood) [4]
